Reference: patent US12048737B2, “Use of a vaccine targeting a cryptic tert epitope, for treating cancer in a HLA-A*0201-positive patient having a non-immunogenic tumor expressing tert” (KRIPTIC PHARMACEUTICALS LIMITED, priority 2017, dated 2024)

Tested on: TERT572 peptide
Test: IFNg ELISpot immunomonitoring of vaccine induced TERT572 specific immune response in PBMC
Assay type: cell-based, human

Vx-001: vaccine composed of two nine amino acid peptides, TERT572 and TERT572Y, administered separately with the adjuvant Montanide ISA51 VG (chain 1 RLFFYRKSV; chain 2 YLFFYRKSV; Montanide ISA51 VG adjuvant; peptide from a human protein; optimized peptide)
Patients who mounted a TERT572 specific immune response (75 Vx-001 treated patients measured at least at W6, W18 or thereafter): 29.3% | Patients with TERT572 specific immune response (non-squamous (NSQ) NSCLC): 36% | Frequency of patients with vaccine-induced immune response (patients with natural immunity against TERT572): 15% | Frequency of patients with vaccine-induced immune response (patients without natural immunity against TERT572): 36.2% | Patients with TERT572 specific immune response (squamous (SQ) NSCLC): 13.3%
